Experimental data: the supplement of paper PMC10307832

Tests used:
Experiment in all cases: relative viability (nuclei count vs DMSO), 5 days (fraction); higher = more cells survive
CAP-232 + Vorinostat = compound: C[C@H]([C@@H](C(=O)N)NC(=O)[C@@H]1CSSC[C@@H](C(=O)N[C@H](C(=O)N[C@@H](C(=O)N[C@H](C(=O)N1)CCCCN)CC2=CNC3=CC=CC=C32)CC4=CC=C(C=C4)O)NC(=O)[C@@H](CC5=CC=CC=C5)N)O [CAP-232] + O=C(CCCCCCC(=O)Nc1ccccc1)NO [Vorinostat] (partner 1 µM)
Procedure, shortened: (§1)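 Relative viability was taken as the ratio of nuclei in treated wells to nuclei in vehicle wells. Lung cancer cell lines in 1536-well plates received compounds by pin tool one day after seeding, either one drug alone or a fixed anchor-drug dose plus five library-drug doses (not always all listed) in √10 steps. Nuclei were counted on 4× images after 5 days of treatment, and values are medians of duplicate plates.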

CAP-232 + Crizotinib = compound: C[C@H]([C@@H](C(=O)N)NC(=O)[C@@H]1CSSC[C@@H](C(=O)N[C@H](C(=O)N[C@@H](C(=O)N[C@H](C(=O)N1)CCCCN)CC2=CNC3=CC=CC=C32)CC4=CC=C(C=C4)O)NC(=O)[C@@H](CC5=CC=CC=C5)N)O [CAP-232] + C[C@@H](Oc1cc(-c2cnn(C3CCNCC3)c2)cnc1N)c1c(Cl)ccc(F)c1Cl [Crizotinib] (partner 1 µM)
Procedure, shortened: as §1

CAP-232 + Linsitinib = compound: C[C@H]([C@@H](C(=O)N)NC(=O)[C@@H]1CSSC[C@@H](C(=O)N[C@H](C(=O)N[C@@H](C(=O)N[C@H](C(=O)N1)CCCCN)CC2=CNC3=CC=CC=C32)CC4=CC=C(C=C4)O)NC(=O)[C@@H](CC5=CC=CC=C5)N)O [CAP-232] + C[C@]1(O)C[C@@H](c2nc(-c3ccc4ccc(-c5ccccc5)nc4c3)c3c(N)nccn32)C1 [Linsitinib] (partner 1 µM)
Procedure, shortened: as §1

CAP-232 + Luminespib = compound: C[C@H]([C@@H](C(=O)N)NC(=O)[C@@H]1CSSC[C@@H](C(=O)N[C@H](C(=O)N[C@@H](C(=O)N[C@H](C(=O)N1)CCCCN)CC2=CNC3=CC=CC=C32)CC4=CC=C(C=C4)O)NC(=O)[C@@H](CC5=CC=CC=C5)N)O [CAP-232] + CCNC(=O)c1noc(-c2cc(C(C)C)c(O)cc2O)c1-c1ccc(CN2CCOCC2)cc1 [Luminespib] (partner 0.01 µM)
Procedure, shortened: as §1

CAP-232 = compound: C[C@H]([C@@H](C(=O)N)NC(=O)[C@@H]1CSSC[C@@H](C(=O)N[C@H](C(=O)N[C@@H](C(=O)N[C@H](C(=O)N1)CCCCN)CC2=CNC3=CC=CC=C32)CC4=CC=C(C=C4)O)NC(=O)[C@@H](CC5=CC=CC=C5)N)O [CAP-232]
Procedure, shortened: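 Acceptance criteria were a control CV below 25% and at least one doubling per plate. Lung cancer cell lines in 1536-well plates got five library-drug doses (not always all listed) √10 apart by pinning and were left 5 days with no medium change. Viability divides treated-well nuclei by vehicle-well nuclei and is the median across plates. Nuclei were counted by MetaXpress from 4× Hoechst images.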

| Cell Line | relative viability (CAP-232 + Vorinostat; first compound 0.4 µM) | relative viability (CAP-232 + Vorinostat; first compound 1.265 µM) | relative viability (CAP-232 + Vorinostat; first compound 4 µM) | relative viability (CAP-232 + Vorinostat; first compound 12.65 µM) | relative viability (CAP-232 + Crizotinib; first compound 0.4 µM) | relative viability (CAP-232 + Crizotinib; first compound 1.265 µM) | relative viability (CAP-232 + Crizotinib; first compound 4 µM) | relative viability (CAP-232 + Crizotinib; first compound 12.65 µM) | relative viability (CAP-232 + Linsitinib; first compound 0.4 µM) | relative viability (CAP-232 + Linsitinib; first compound 1.265 µM) | relative viability (CAP-232 + Linsitinib; first compound 4 µM) | relative viability (CAP-232 + Linsitinib; first compound 12.65 µM) | relative viability (CAP-232 + Luminespib; first compound 0.4 µM) | relative viability (CAP-232 + Luminespib; first compound 1.265 µM) | relative viability (CAP-232 + Luminespib; first compound 4 µM) | relative viability (CAP-232 + Luminespib; first compound 12.65 µM) | relative viability (CAP-232; 0.4 µM) | relative viability (CAP-232; 1.265 µM) | relative viability (CAP-232; 4 µM) | relative viability (CAP-232; 12.65 µM) |
| --- | --- | --- | --- | --- | --- | --- | --- | --- | --- | --- | --- | --- | --- | --- | --- | --- | --- | --- | --- | --- |
| NCI-H650 | 0.505 | 0.423 | 0.364 | 0.457 | 0.7 | 0.767 | 0.795 | 0.494 | 1.12 | 0.808 | 0.872 | 0.846 | 0.735 | 0.824 | 0.674 | 0.721 | 1.03 | 0.979 | 1.02 | 0.91 |
| NCI-H661 | 0.848 | 0.848 | 0.875 | 0.752 | 1 | 0.947 | 1.05 | 1.13 | 0.488 | 0.659 | 0.575 | 0.462 | 0.954 | 0.907 | 0.883 | 0.719 | 0.948 | 1.04 | 1.04 | 0.984 |
| NCI-H727 | 1.19 | 1.08 | 1.39 | 1.23 | – | 0.757 | 1.04 | 0.82 | – | 0.346 | 0.316 | 0.245 | 0.474 | 0.318 | 0.348 | 0.386 | 0.746 | 0.938 | 0.955 | 0.913 |
| NCI-H838 | 0.727 | 0.756 | 0.754 | 0.736 | 1.03 | 0.804 | 0.981 | 0.65 | 1.09 | 1.01 | 1.08 | 0.595 | 0.321 | 0.266 | 0.349 | 0.246 | 1.03 | 0.943 | 1.05 | 0.757 |
| NCI-H1355 | 0.612 | 0.624 | 0.74 | 0.611 | 1.02 | 1.01 | 1.22 | 1.27 | 0.776 | 0.901 | 1.02 | 0.754 | 0.81 | 0.808 | 0.578 | 0.683 | 1.09 | 0.987 | 1.13 | 0.95 |
| NCI-H1437 | 0.921 | 0.877 | 0.86 | 0.828 | 1.11 | 0.927 | 1.05 | 0.81 | 1.04 | 1.03 | 1.17 | 0.664 | 1.17 | 1.13 | 1.24 | 0.812 | 0.996 | 1.01 | 1.03 | 0.895 |
| NCI-H1651 | 0.632 | 0.55 | 0.577 | 0.551 | 0.861 | 0.856 | 0.918 | 0.904 | 1.02 | 0.937 | 1.01 | 0.655 | 1.12 | 0.95 | 0.867 | 0.506 | 1.04 | 0.954 | 1.01 | 0.773 |
| NCI-H1666 | 1.09 | 1.06 | 1.19 | 0.856 | 1.03 | – | 0.829 | 0.852 | 0.721 | – | 0.85 | 0.619 | 1.03 | 1.04 | 0.982 | 0.963 | 0.927 | 0.913 | 1.02 | 0.871 |
| NCI-H1734 | 0.878 | 0.755 | 0.803 | 0.708 | 0.674 | 0.577 | 0.758 | 0.65 | 0.848 | 0.917 | 0.951 | 0.766 | 0.194 | 0.214 | 0.163 | 0.206 | 0.97 | 0.981 | 1.05 | 0.936 |
| NCI-H1755 | 0.698 | 0.635 | 0.755 | 0.73 | 0.988 | 0.778 | 0.976 | 0.747 | 1.07 | 0.975 | 1.08 | 0.941 | 0.419 | 0.612 | 0.329 | 0.383 | 1.04 | 0.964 | 1.1 | 0.918 |
| NCI-H1915 | 0.697 | 0.511 | 0.516 | 0.506 | 1.04 | 0.915 | 1.04 | 0.961 | 1.08 | 1.1 | 1.08 | 0.986 | 0.946 | 0.798 | 0.806 | 0.736 | 1.09 | 0.948 | 1.08 | 1.07 |
| NCI-H1944 | 0.614 | 0.673 | 0.559 | 0.552 | 1.12 | 1.05 | 1.03 | 1.24 | 1.3 | 1.13 | 1.14 | 1.07 | 0.709 | 0.695 | 0.78 | 0.667 | 0.921 | 0.972 | 1.03 | 0.969 |
| NCI-H1975 | 0.781 | 0.758 | 0.763 | 0.449 | 1.11 | 1.07 | 1.08 | 0.892 | 1.03 | 1.02 | 1.07 | 0.65 | 0.256 | 0.195 | 0.195 | 0.185 | 1.11 | 0.86 | 1.02 | 0.72 |
| NCI-H1993 | 0.702 | 0.802 | 0.791 | 0.749 | 0.884 | 0.95 | 0.885 | 0.835 | 0.778 | 0.758 | 0.788 | 0.7 | 0.735 | 0.882 | 0.99 | 0.831 | 0.954 | 0.934 | 1.09 | 0.945 |
